Laboratory results reported in patent publication US6495591B1, “Fungal efflux pump inhibitors” (Essential Therapeutics, Inc., priority 1997, dated 2002).
pIC50: −log10 of the molar value. Like-named read-outs stand apart in the source and are kept apart here.

What was measured:
[1] = biological target: pFLU (MF) efflux pump in S. cerevisiae YEM-38 (Candida albicans, UniProt G1UB37); assay: cell-based; assay type: cell-based, C. albicans; details: for FEPIhalf (concentration needed to reduce activity of efflux pump by 50%): YEM-38 pFLU, fluconazole fixed at FLUhalf 2
pFLU (MF) efflux pump in S. cerevisiae YEM-38, sequence (G1UB37 whole entry): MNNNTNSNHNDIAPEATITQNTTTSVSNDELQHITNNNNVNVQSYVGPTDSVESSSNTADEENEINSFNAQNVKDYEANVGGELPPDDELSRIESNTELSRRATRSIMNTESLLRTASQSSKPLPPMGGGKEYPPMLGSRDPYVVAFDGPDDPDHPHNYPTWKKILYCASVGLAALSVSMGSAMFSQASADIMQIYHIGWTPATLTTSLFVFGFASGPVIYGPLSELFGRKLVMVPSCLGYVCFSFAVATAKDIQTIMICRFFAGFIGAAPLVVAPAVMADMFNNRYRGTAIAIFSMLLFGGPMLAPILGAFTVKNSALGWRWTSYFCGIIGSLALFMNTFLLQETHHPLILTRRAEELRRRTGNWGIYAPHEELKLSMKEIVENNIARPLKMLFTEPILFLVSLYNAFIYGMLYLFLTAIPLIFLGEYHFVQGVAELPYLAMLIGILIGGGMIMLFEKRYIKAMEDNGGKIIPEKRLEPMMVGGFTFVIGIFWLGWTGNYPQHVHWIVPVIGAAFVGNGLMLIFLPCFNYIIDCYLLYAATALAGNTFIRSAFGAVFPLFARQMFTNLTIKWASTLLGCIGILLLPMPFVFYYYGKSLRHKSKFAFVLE

[2] = system: YEM 13 C. albicans BEN up; assay: microbe, parasite or virus in culture; assay type: cell-based; details: YEM 13, 24 hrs, 80% inhibition; for MIC of compound in the presence of fluconazole (+): 1/8 × MIC of fluconazole
YEM 53 C. krusei = assay: FEPI MIC with/without 1/8 fluconazole MIC at 24 hrs (Table 11); assay type: cell-based
Aspergillus fumigatus = assay: FEPI MICs in combination with 1/4 the azole's MIC (Table 12); assay type: cell-based; set-up: FEPI MIC (alone): unit not given here; details: for FEPI MIC with itraconazole, 60% Inh / FEPI MIC with itraconazole, 80% Inh: itraconazole 0.063 μg/ml (1/4 MIC); for FEPI MIC with ketoconazole, 60% Inh / FEPI MIC with ketoconazole, 80% Inh: ketoconazole 4 μg/ml (1/4 MIC); for FEPI MIC (alone): no azole, 35° C., CM Broth
Method: The combinations were tested against a series of Candida strain with known expression of efflux pumps or with complete deletion of all known pumps and Aspergillus fumigatus. Results are reported as minimum inhibitory concentration (MIC) of […] in the presence or absence of […]. A total of 27 distinct milbemycins were studied.

YEM 30 C. albicans wt = assay: FEPI MIC with/without 1/8 fluconazole MIC at 24 hrs (Table 11); assay type: cell-based
[3] = biological target: pCDRI (ABC) efflux pump in S. cerevisiae YEM-1 (Candida albicans, UniProt P43071); assay: cell-based; assay type: cell-based, C. albicans; details: for FEPIhalf (concentration needed to reduce activity of efflux pump by 50%): YEM-1 pCDRI, fluconazole fixed at FLUhalf 5.6
pCDRI (ABC) efflux pump in S. cerevisiae YEM-1, sequence (P43071 whole entry): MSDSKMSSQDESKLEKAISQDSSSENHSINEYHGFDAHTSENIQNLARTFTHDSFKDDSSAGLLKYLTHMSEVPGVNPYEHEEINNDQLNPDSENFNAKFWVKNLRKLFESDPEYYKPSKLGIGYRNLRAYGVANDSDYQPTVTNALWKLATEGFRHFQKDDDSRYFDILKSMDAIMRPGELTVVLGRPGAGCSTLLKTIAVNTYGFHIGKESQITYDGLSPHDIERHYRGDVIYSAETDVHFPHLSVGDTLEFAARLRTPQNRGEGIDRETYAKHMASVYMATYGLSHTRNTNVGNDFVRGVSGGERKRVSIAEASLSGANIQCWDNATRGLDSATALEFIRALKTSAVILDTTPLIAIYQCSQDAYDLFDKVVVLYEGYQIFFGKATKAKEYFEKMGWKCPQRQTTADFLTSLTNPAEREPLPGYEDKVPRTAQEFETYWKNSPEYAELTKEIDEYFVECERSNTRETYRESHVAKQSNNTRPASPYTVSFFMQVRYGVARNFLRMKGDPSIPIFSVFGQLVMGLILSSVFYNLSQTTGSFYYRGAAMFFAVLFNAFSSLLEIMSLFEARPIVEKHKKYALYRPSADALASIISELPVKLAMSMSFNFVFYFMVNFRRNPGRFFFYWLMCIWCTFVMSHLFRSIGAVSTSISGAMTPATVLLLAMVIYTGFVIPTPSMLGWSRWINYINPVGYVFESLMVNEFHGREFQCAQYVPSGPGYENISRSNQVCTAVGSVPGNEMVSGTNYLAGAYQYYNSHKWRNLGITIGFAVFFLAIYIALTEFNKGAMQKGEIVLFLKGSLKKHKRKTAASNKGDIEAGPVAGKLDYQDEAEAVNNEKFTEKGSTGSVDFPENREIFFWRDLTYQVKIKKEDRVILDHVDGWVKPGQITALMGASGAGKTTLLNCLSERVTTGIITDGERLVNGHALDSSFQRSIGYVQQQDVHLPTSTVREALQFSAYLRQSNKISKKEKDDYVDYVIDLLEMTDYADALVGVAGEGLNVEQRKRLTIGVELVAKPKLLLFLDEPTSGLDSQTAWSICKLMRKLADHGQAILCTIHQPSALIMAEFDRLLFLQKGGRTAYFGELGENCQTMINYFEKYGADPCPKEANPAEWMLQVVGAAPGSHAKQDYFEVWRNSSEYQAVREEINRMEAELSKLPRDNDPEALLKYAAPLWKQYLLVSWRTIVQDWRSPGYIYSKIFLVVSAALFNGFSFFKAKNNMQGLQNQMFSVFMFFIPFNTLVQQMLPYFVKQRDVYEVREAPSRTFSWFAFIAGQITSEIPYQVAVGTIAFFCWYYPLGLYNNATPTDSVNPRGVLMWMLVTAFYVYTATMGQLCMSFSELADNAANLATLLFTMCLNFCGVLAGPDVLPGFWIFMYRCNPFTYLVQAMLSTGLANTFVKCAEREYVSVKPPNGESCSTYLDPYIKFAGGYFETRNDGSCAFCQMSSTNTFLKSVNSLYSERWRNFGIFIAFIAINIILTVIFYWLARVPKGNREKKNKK

[4] = biological target: pCDR2 (ABC) efflux pump in S. cerevisiae YEM-37 (Candida albicans, UniProt P78595); assay: cell-based; assay type: cell-based, C. albicans; details: for FEPIhalf (concentration needed to reduce activity of efflux pump by 50%): YEM-37 pCDR2, fluconazole fixed at FLUhalf 1
[5] = system: YEM 27 C. albicans ΔCDR1ΔCDR2 ΔBENΔFLU1; assay: microbe, parasite or virus in culture; assay type: cell-based; details: YEM 27, 24 hrs, 80% inhibition; for MIC of compound in the presence of fluconazole (+): 1/8 × MIC of fluconazole
YEM 51 C. glabrata wt = assay: FEPI MIC with/without 1/8 fluconazole MIC at 24 hrs (Table 11); assay type: cell-based
[6] = system: YEM 15 C. albicans, CDR1CDR2 up; assay: microbe, parasite or virus in culture; assay type: cell-based; details: YEM 15, 24 hrs, 80% inhibition; for MIC of compound in the presence of fluconazole (+): 1/8 × MIC of fluconazole
[7] = biological target: pBEN (MF) efflux pump in S. cerevisiae YEM-2 (Candida albicans, UniProt P28873); assay: cell-based; assay type: cell-based, C. albicans; details: for FEPIhalf (concentration needed to reduce activity of efflux pump by 50%): YEM-2 pBEN, fluconazole fixed at FLUhalf 5.6
pBEN (MF) efflux pump in S. cerevisiae YEM-2, sequence (P28873 whole entry): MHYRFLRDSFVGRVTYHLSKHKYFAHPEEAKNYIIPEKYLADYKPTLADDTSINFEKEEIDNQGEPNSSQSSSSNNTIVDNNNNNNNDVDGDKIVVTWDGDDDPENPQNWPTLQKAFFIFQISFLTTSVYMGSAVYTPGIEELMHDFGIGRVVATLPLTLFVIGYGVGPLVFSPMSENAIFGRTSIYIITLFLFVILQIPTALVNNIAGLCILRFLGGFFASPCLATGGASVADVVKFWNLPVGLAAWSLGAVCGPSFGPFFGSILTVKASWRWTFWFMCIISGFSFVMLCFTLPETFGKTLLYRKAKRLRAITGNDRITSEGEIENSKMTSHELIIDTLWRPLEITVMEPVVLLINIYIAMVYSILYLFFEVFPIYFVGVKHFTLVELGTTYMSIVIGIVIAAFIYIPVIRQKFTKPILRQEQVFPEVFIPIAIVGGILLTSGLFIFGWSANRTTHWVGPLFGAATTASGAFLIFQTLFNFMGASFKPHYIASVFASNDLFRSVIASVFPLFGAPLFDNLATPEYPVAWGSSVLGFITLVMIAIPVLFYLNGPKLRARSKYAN

[8] = system: YEM 17 C. glabrata, CgCDR up; assay type: cell-based; details: 24 hrs, 80% inhibition; for MIC of compound in the presence of fluconazole (+): 1/8 × MIC of fluconazole
[9] = system: YEM 24 C. albicans ΔCDR1, ΔCDR2; assay: microbe, parasite or virus in culture; assay type: cell-based; details: YEM 24, 24 hrs, 80% inhibition; for MIC of compound in the presence of fluconazole (+): 1/8 × MIC of fluconazole
[10] = biological target: pCgCDR (ABC) efflux pump in S. cerevisiae YEM-39 (Candida glabrata, UniProt Q6FK23); assay: cell-based; assay type: cell-based, C. glabrata; details: for FEPIhalf (concentration needed to reduce activity of efflux pump by 50%): YEM-39 pCgCDR, fluconazole fixed at FLUhalf 4
pCgCDR (ABC) efflux pump in S. cerevisiae YEM-39, sequence (Q6FK23 whole entry): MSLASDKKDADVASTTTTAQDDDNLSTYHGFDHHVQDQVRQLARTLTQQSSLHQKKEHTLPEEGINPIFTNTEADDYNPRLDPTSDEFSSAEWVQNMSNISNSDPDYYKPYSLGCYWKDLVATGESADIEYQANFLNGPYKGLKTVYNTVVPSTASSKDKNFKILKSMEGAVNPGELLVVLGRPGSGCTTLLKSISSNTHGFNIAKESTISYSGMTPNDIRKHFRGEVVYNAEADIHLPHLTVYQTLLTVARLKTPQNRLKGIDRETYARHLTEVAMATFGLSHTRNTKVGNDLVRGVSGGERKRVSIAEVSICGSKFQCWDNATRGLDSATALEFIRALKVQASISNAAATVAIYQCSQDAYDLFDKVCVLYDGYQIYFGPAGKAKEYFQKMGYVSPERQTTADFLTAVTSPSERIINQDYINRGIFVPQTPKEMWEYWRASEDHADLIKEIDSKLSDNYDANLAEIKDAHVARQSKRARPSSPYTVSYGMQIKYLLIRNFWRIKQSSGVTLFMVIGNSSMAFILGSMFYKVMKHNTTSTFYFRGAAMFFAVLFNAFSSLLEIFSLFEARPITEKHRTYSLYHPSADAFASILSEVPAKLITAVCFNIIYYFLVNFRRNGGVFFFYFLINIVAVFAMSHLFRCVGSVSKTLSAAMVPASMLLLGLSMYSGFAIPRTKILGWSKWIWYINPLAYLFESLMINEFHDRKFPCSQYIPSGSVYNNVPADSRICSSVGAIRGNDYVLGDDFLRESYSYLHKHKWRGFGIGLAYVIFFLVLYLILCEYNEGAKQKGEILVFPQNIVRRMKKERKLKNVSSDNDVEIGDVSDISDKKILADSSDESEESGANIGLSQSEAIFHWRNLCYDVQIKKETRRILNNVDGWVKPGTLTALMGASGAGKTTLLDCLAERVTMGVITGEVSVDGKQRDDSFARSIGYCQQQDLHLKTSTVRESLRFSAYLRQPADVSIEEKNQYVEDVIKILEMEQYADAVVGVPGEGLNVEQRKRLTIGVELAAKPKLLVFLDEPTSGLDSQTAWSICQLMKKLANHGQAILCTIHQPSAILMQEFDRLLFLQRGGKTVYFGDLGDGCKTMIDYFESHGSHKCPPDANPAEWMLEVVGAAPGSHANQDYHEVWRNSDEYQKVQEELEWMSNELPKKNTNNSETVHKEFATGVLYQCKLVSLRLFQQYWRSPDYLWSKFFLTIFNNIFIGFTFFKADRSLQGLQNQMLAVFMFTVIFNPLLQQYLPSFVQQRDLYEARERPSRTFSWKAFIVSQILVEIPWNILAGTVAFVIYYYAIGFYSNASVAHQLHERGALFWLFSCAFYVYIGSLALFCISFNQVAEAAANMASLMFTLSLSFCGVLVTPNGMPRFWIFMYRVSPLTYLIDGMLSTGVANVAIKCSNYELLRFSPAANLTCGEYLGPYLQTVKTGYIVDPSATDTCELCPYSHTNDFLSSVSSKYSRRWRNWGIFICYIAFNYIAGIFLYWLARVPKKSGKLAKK

[11] = system: pCgBEN (MF) efflux pump in S. cerevisiae YEM-40; assay type: cell-based, C. glabrata
[12] = YEM 53, 1/8 × MIC of fluconazole, 24 hrs, 80% inhibition
[13] = fluconazole 32 μg/ml (1/4 MIC), 60% inhibition
[14] = fluconazole 32 μg/ml (1/4 MIC), 80% inhibition
[15] = YEM 30, 1/8 × MIC of fluconazole, 24 hrs, 80% inhibition
[16] = YEM 51, 1/8 × MIC of fluconazole, 24 hrs, 80% inhibition
[17] = YEM-40 pCgBEN, fluconazole fixed at FLUhalf 2.8

Compound | FEPIhalf (concentration needed to reduce activity of efflux pump by 50%) [1] | MIC of compound in the presence of fluconazole (+) [2] [µg/mL] | MIC of compound in the absence of fluconazole (−) [2] [µg/mL] | MIC of compound in the presence of fluconazole (+) (YEM 53 C. krusei; [12]) [µg/mL] | MIC of compound in the absence of fluconazole (−) (YEM 53 C. krusei; YEM 53, 24 hrs, 80% inhibition) [µg/mL] | FEPI MIC with itraconazole, 60% Inh (Aspergillus fumigatus; 60% inhibition) | FEPI MIC with itraconazole, 80% Inh (Aspergillus fumigatus; 80% inhibition) | FEPI MIC with ketoconazole, 60% Inh (Aspergillus fumigatus; 60% inhibition) | FEPI MIC with ketoconazole, 80% Inh (Aspergillus fumigatus; 80% inhibition) | FEPI MIC (alone) (Aspergillus fumigatus; 80% inhibition) | MIC of compound in the absence of fluconazole (−) (YEM 30 C. albicans wt; YEM 30, 24 hrs, 80% inhibition) [µg/mL] | MIC of compound in the presence of fluconazole (+) [5] [µg/mL] | MIC of compound in the absence of fluconazole (−) [5] [µg/mL] | MIC of compound in the absence of fluconazole (−) (YEM 51 C. glabrata wt; YEM 51, 24 hrs, 80% inhibition) [µg/mL] | MIC of compound in the presence of fluconazole (+) [6] | MIC of compound in the absence of fluconazole (−) [6] [µg/mL] | MIC of compound in the presence of fluconazole (+) [8] [µg/mL] | MIC of compound in the absence of fluconazole (−) [8] [µg/mL] | MIC of compound in the presence of fluconazole (+) [9] [µg/mL] | MIC of compound in the absence of fluconazole (−) [9] [µg/mL] | also measured
5-Keto-8-deoxymilbemycin β1 [Compound 22] | >64 | > 64 | > 64 | 8 | > 64 | >64 | >64 | ≦0.063 | ≦0.063 | >64 | > 64 | > 64 | > 64 | > 64 | ≦0.03 | > 64 | > 64 | > 64 | > 64 | > 64 | FEPI MIC with fluconazole, 60% Inh (Aspergillus fumigatus; [13]): >64; FEPI MIC with fluconazole, 80% Inh (Aspergillus fumigatus; [14]): >64; MIC of compound in the presence of fluconazole (+) (YEM 30 C. albicans wt; [15]): ≦0.03; FEPIhalf (concentration needed to reduce activity of efflux pump by 50%) [3]: <0.06; FEPIhalf (concentration needed to reduce activity of efflux pump by 50%) [4]: 1; MIC of compound in the presence of fluconazole (+) (YEM 51 C. glabrata wt; [16]): > 64 µg/mL; FEPIhalf (concentration needed to reduce activity of efflux pump by 50%) [7]: >64; FEPIhalf (concentration needed to reduce activity of efflux pump by 50%) [10]: 64; FEPIhalf (concentration needed to reduce activity of efflux pump by 50%) [11]: >64
CO[C@@H]1C(C)=C[C@H]2C(=O)O[C@H]3C[C@@H](C/C=C(\C)C[C@@H](C)/C=C/C=C4\CO[C@H]1[C@@]42O)O[C@@]1(CC[C@H](C)[C@@H](C)O1)C3 [Compound 4, Milbemycin α2] | – | > 64 | > 64 | – | > 64 | 2 | >64 | 0.5 | 0.5 | >64 | > 64 | 64 | > 64 | > 64 | ≦0.03 | > 64 | 2 | > 64 | > 64 | > 64 | pIC50 [1]: < 3.93; MIC of compound in the presence of fluconazole (+) (YEM 53 C. krusei): 8 µg/mL; FEPI MIC with fluconazole, 60% Inh (Aspergillus fumigatus): 1; FEPI MIC with fluconazole, 80% Inh (Aspergillus fumigatus): >64; MIC of compound in the presence of fluconazole (+) (YEM 30 C. albicans wt): ≦0.03; pIC50 [3]: 6.64; pIC50 [4]: 6.34; MIC of compound in the presence of fluconazole (+) (YEM 51 C. glabrata wt): 4 µg/mL; pIC50 [7]: < 3.93; pIC50 [10]: 5.13; FEPIhalf (concentration needed to reduce activity of efflux pump by 50%) [11, 17]: >64
CC[C@H]1O[C@]2(CC[C@@H]1C)C[C@@H]1C[C@@H](C/C=C(\C)C[C@@H](C)/C=C/C=C3\CO[C@@H]4[C@H](O)C(C)=C[C@@H](C(=O)O1)[C@]34O)O2 [Compound 7, Milbemycin α3] | – | > 64 | > 64 | – | > 64 | >64 | >64 | ≦0.063 | ≦0.063 | >64 | > 64 | > 64 | > 64 | > 64 | 0.125 µg/mL | > 64 | > 64 | > 64 | > 64 | > 64 | pIC50 [1]: < 3.93; MIC of compound in the presence of fluconazole (+) (YEM 53 C. krusei): 16 µg/mL; FEPI MIC with fluconazole, 60% Inh (Aspergillus fumigatus): >64; FEPI MIC with fluconazole, 80% Inh (Aspergillus fumigatus): >64; MIC of compound in the presence of fluconazole (+) (YEM 30 C. albicans wt): ≦0.03; pIC50 [3]: 6.04; pIC50 [4]: 4.83; MIC of compound in the presence of fluconazole (+) (YEM 51 C. glabrata wt): > 64 µg/mL; pIC50 [7]: 4.53; pIC50 [10]: 4.53; FEPIhalf (concentration needed to reduce activity of efflux pump by 50%) [11, 17]: >64
CCCCC(C)C(=O)OC1C(C)C(C)OC2(CC3CC(C/C=C(\C)CC(C)/C=C/C=C4\COC5C(O)C(C)=CC(C(=O)O3)C45O)O2)C1O (stereo not drawn) [Compound 8, Milbemycin α5] | >64 | > 64 | > 64 | 32 | > 64 | 1 | 8 | ≦0.063 | ≦0.063 | >64 | > 64 | > 64 | > 64 | > 64 | 0.125 µg/mL | > 64 | 2 | > 64 | > 64 | > 64 | FEPI MIC with fluconazole, 60% Inh (Aspergillus fumigatus; [13]): 1; FEPI MIC with fluconazole, 80% Inh (Aspergillus fumigatus; [14]): >64; MIC of compound in the presence of fluconazole (+) (YEM 30 C. albicans wt; [15]): ≦0.03; FEPIhalf (concentration needed to reduce activity of efflux pump by 50%) [3]: 0.5; FEPIhalf (concentration needed to reduce activity of efflux pump by 50%) [4]: 2; MIC of compound in the presence of fluconazole (+) (YEM 51 C. glabrata wt; [16]): 8 µg/mL; FEPIhalf (concentration needed to reduce activity of efflux pump by 50%) [7]: 16; FEPIhalf (concentration needed to reduce activity of efflux pump by 50%) [10]: 8; FEPIhalf (concentration needed to reduce activity of efflux pump by 50%) [11]: >64
